# Laboratory results reported in article PMC11391541, “Target-Directed Dynamic Combinatorial Chemistry Affords Binders of Mycobacterium tuberculosis IspE” (ACS Omega, 2024).
# How the values were obtained:
# [1] = target: T1, MtbIspE (Mycobacterium tuberculosis, UniProt P9WKG7); assay: target-directed dynamic combinatorial chemistry (tdDCC), amplification of acylhydrazones in protein-templated vs blank DCL (HPLC-MS/MS, UV 310 nm); format: binding
# Method: In this study, we used MtbIspE as target protein and the reversible reaction of hydrazides and aldehydes to form dynamic combinatorial libraries (DCLs) of acylhydrazones. […] To accelerate the reaction at neutral pH, aniline was used as nucleophilic catalyst activating the aldehydes.[2],[4],[19] We analyzed the protein’s effect on the DCLs by comparing HPLC-MS/MS data of blank vs protein-templated (PT) experiments. The experiments spanned 3 days, with periodic sampling (every 2 h, followed by two samples per day after 8 h). The addition of NaOH to raise the pH and halt the reactions ensured the sample composition was preserved for analysis.[19] Templated experiments were conducted in duplicate, and the protein was denatured and removed prior to HPLC-MS/MS analysis.
# The tdDCC hits and thus potential MtbIspE binders are amplified in the PT experiment compared to the blank experiment. The first step in the analysis of DCLs is the determination of the equilibrium since the amplification factors need to be calculated when the concentration of products is stable. To determine the evolution of the possible products, it is important to measure the characteristic UV absorbance of the acylhydrazones linker (310 nm) during the HPLC-MS/MS run. The resulting UV peaks are assigned to each product using the MS data (Figures S3–S6). The sum of all peak areas is normalized to 100% in order to obtain the respective relative peak area (RPA) for each product. The RPA values represent relative concentrations, determined at each time point of the blank experiment until the values stabilize. […] However, the rest of the compounds are out of range, making a visual inspection difficult. […] The other three libraries behaved in the same way, reaching equilibrium within 24 h and also maintained stable concentrations beyond (Figures S7–S9). To determine the tdDCC hits, we compared the RPAs of the PT experiments to the blanks at 24 h and set a threshold of at least 50% increase in compound formation. In total, 11 acylhydrazones passed our criteria, with amplification factors ranging from […] to 15.5, qualifying them for resynthesis and further evaluation (Figure 3). During the analysis of chromatograms, challenges arose concerning product identification. Some compound peaks were not neatly separated, forcing us to consider them in clusters, others presented two peaks, likely due to isomers, and were considered separately in our evaluation. Lastly, some compounds were detected by MS, but their respective UV signal interfered with the injection peak or was too low for integration (<1%), both in the blank and PT experiments. Consequently, we excluded these compounds from the analysis (Figure S3–S6).
# To a well of a 24-well plate, containing Tris buffer (pH 7.0) were added hydrazides (300 μM each, in DMSO), aldehydes (100 μM each, in DMSO), aniline (20 mM, in DMSO), the protein MtbIspE (25 or 40 μM in Tris buffer at pH 7.0), and an additional amount of DMSO to reach a final concentration of 5% in the DCL with 0.5 mL of end-volume. The DCL was allowed to mix on a plate shaker at room temperature and was frequently monitored via LCMS-MS. For analysis, 30 μL of the corresponding library was mixed with 42 μL acetonitrile and 3 μL of NaOH (1 M), the mixture was centrifuged, and the supernatant was used for the analysis. PT experiments were run in duplicates and the protein was omitted for the blank experiments.
# High-resolution mass (HRMS) of final products was determined by HPLC-MS/MS using a Thermo Scientific Q Exactive Focus Orbitrap LC -MS/MS system. All compounds were analyzed for purity by LCMS on Acquity UPLC-SQD system from Waters with a gradient elution of Water (Formic acid 0.1%)/Acetonitrile on an HSS - T3 column (2.1 x 50 mm, Waters), 1.8 µm, at 30°C, PDA detection between 240 -320 nm, and MS detection by simultaneous ES+/ES- ionization in a mass range of 150 -800. The flow is set to 0.9 ml/min, and the […]
# gradient time is 1.5 min. […]
# [2] = target: T1, MtbIspE; assay: MtbIspE binding study via thermal shift assay; conditions: read-out: MtbIspE ΔTm at 20 μM
# [3] = test system: fungi; parameters: method as in PMID 25943854; conditions: cited from earlier work
# T1 sequence (P9WKG7 whole entry): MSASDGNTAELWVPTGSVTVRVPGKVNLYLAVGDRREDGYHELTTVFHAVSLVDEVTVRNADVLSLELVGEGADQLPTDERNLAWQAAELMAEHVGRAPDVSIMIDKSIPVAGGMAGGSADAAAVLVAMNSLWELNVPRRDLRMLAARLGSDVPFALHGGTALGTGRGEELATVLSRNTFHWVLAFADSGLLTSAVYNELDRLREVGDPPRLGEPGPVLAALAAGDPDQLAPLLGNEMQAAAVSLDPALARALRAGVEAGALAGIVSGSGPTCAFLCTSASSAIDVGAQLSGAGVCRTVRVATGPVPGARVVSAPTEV
smiles,measurement,setting,value
"COc1ccc(-c2cc(/C=N/NC(=O)c3cc(CC(C)C)n[nH]3)no2)cc1 [D6, (E)-3-Isobutyl-N′-((5-(4-methoxyphenyl)isoxazol-3-yl)methylene)-1H-pyrazole-5-carbohydrazide]",Amplification factors (DCL-4),"[1]; DCL-4, 24 h, 40 mol % MtbIspE",1.0
same,ΔTm at 20 µM,[2],< 0.3 °C
"O=C(N/N=C/c1ccc(C(F)(F)F)cc1)c1cccc(Cl)c1 [K4, (E)-3-Chloro-N′-(4-(trifluoromethyl)benzylidene)benzohydrazide]","Amplification factor (DCL-2, control compound)","[1]; DCL-2, 40 mol % MtbIspE",0.0
same,ΔTm at 20 µM,[2],0.7 °C
"O=C(N/N=C/c1cc(Cl)ccc1O)c1ccncc1 [L1, (E)-N′-(5-Chloro-2-hydroxybenzylidene)isonicotinohydrazide]",Amplification factors (DCL-3),"[1]; DCL-3, 24 h, 40 mol % MtbIspE, I1 and K1 integrated as one cluster",4.1
same,ΔTm at 20 µM,[2],< 0.3 °C
same,antifungal properties,[3],antifungal properties
